The values that follow come from ChEMBL document CHEMBL1140353, “Structure-activity relationships of 1-alkyl-5-(3,4-dichlorophenyl)-5-{2-[3-(substituted)-1-azetidinyl]-ethyl}-2-piperidones. Part 2: Improving oral absorption” (Bioorg Med Chem Lett, 2005).

By IC50 is commonly meant the concentration that inhibits the measured activity by half. One may read the half-life as the time needed for the level to fall by half in the phase considered. A higher half-life goes with slow loss. In general, pKi refers to the Ki on a negative log10 scale, so that one unit is a factor of ten. The low end stands for a high Ki, the high end for a low Ki. Usually logD stands for lipophilicity at a set pH, counting ionised and neutral species. A word on the clearance: it is the rate of elimination divided by the concentration. A higher clearance goes with a high capacity for elimination.

Data set [1] has as its target T1, Substance-K receptor (Homo sapiens, UniProt P21452).
T1 sequence (P21452 whole entry): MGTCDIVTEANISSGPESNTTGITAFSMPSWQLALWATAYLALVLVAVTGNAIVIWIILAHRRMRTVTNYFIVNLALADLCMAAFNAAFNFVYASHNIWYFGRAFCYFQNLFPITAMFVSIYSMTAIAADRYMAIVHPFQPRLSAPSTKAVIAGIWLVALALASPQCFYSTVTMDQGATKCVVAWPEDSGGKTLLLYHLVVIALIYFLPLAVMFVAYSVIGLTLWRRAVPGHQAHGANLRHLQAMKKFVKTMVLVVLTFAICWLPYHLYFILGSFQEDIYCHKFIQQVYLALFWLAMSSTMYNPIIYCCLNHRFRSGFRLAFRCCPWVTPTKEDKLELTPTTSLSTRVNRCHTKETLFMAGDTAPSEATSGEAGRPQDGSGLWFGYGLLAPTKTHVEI
Kind of data set: Inhibition of human Neurokinin 2 receptor.

The target in data set [2] is T2, Substance-K receptor (Oryctolagus cuniculus, UniProt P79218).
T2 sequence (P79218 whole entry): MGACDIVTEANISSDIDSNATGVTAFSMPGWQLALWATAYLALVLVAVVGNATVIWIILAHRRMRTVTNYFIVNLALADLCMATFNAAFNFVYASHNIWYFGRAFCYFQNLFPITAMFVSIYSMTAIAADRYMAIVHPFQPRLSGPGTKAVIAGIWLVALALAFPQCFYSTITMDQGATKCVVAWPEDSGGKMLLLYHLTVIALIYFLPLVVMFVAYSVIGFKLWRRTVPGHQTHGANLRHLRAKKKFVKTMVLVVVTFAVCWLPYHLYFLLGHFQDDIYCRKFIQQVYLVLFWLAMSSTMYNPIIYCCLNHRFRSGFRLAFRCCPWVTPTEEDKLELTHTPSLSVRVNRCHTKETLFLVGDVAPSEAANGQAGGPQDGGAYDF
Nature of the data set: pA2 for NK2 receptor of rabbit pulmonary artery. As to conditions: read-out: pA2 (converted). The data set is classed as functional.

The species entered for data set [3] is Homo sapiens. Kind of data set: Ratio of apical basolateral (A-B) and basolateral apical (B-A) determined by Caco-2 assay in human (ER=1). It counts as ADME.
The nature of data set [4]: Half life in human microsomal liver cells. It counts as ADME. As to conditions: liver microsomes.
The species entered for data set [5] is Homo sapiens. Kind of data set: Ratio of apical basolateral (A-B) and basolateral apical (B-A) determined by Caco-2 assay in human (ER=60/60). It counts as ADME.
The target of data set [6] is T1, Substance-K receptor. Nature of the data set: pKi for human Neurokinin 2 receptor.
The next data set addresses Substance-P receptor (Homo sapiens, UniProt P25103). Nature of the data set: Inhibitory concentration for Tachykinin 1 receptor of human IM9 cells. The data set is classed as cell-based, IM-9.
The nature of data set [7]: Oral absorption of 20 mg/kg tested in rat. It counts as ADME, organism-based. Set-up: dose 20 mg/kg. The conditions noted are these: in vivo, read-out: Absorption.
The species named for data set [8] is Homo sapiens. Nature of the data set: Ratio of apical basolateral (A-B) and basolateral apical (B-A) determined by Caco-2 assay in human (ER=6/12). The data set is classed as ADME.
The species entered for data set [9] is Homo sapiens. Kind of data set: Ratio of apical basolateral (A-B) and basolateral apical (B-A) determined by Caco-2 assay in human (ER<2). It counts as ADME.
The species named for data set [10] is Homo sapiens. Kind of data set: Ratio of apical basolateral (A-B) and basolateral apical (B-A) determined by Caco-2 assay in human (ER=12/16). It counts as ADME.
The species entered for data set [11] is Homo sapiens. Kind of data set: Ratio of apical basolateral (A-B) and basolateral apical (B-A) determined by Caco-2 assay in human (ER=33/35). The data set is classed as ADME.
The nature of data set [12]: Distribution coefficient (Log D) value at pH 7.4. As to conditions: octanol/water. It counts as physicochemical.
The species entered for data set [13] is Homo sapiens. Kind of data set: Ratio of apical basolateral (A-B) and basolateral apical (B-A) determined by Caco-2 assay in human (ratio=12/18). The data set is classed as ADME.
The target of data set [14] is T1, Substance-K receptor. Kind of data set: pA2 for NK2 receptor of Human bladder. The data set is classed as functional. As to conditions: read-out: pA2 (converted).
The nature of data set [15]: Oral absorption of 10 mg/kg tested in rat. It counts as ADME, organism-based. Also noted: dose 10 mg/kg. The conditions noted are these: in vivo, read-out: Absorption.
Data set [16] is filed under the species Homo sapiens. Nature of the data set: Ratio of apical basolateral (A-B) and basolateral apical (B-A) determined by Caco-2 assay in human; (ratio=1/18). It counts as ADME.
The nature of data set [17]: In vivo clearance of […] mg/kg of compound tested in human. The data set is classed as ADME, organism-based. As to conditions: 10 mg/kg.
The species entered for data set [18] is Homo sapiens. Nature of the data set: Ratio of apical basolateral (A-B) and basolateral apical (B-A) determined by Caco-2 assay in human (ratio=2/3). The data set is classed as ADME.
Data set [19] is filed under the species Homo sapiens. Nature of the data set: Ratio of apical basolateral (A-B) and basolateral apical (B-A) determined by Caco-2 assay in human. It counts as ADME.
For data set [20], the species on record is Homo sapiens. Nature of the data set: Ratio of apical basolateral (A-B) and basolateral apical (B-A) determined by Caco-2 assay in human (ER=2/12). It counts as ADME.

Chain of Substance-P receptor (P25103 whole entry): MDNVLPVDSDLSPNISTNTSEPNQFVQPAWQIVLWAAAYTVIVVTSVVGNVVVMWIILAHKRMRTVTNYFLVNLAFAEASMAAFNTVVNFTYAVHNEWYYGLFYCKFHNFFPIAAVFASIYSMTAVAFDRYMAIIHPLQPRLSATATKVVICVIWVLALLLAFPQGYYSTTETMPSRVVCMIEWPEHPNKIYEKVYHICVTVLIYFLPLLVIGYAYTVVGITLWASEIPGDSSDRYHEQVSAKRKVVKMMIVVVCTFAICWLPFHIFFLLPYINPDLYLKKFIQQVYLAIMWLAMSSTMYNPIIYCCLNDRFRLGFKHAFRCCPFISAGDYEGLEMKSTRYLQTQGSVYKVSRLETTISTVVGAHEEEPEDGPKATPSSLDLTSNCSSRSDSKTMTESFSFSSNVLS

`CCOC1CCN(C2CN(CC[C@]3(c4ccc(Cl)c(Cl)c4)CCC(=O)N(CC4CC4)C3)C2)CC1` had an IC50 against Substance-K receptor [1] of 15.8 nM. Moreover, on Substance-K receptor [2], the Kb was 6.31 nM. Also, the Caco-2 permeability in the data set listed under Homo sapiens [3] came out at 34 % hr-1.
As for `O=C1CC[C@](CCN2CC(N3CCC(F)CC3)C2)(c2ccc(Cl)c(Cl)c2)CN1C1(C2CC2)CCCC1`, the half-life in data set [4] turned out to be 0.0333 h. Further, the Caco-2 permeability entry in the data set filed under Homo sapiens [5] is “Permeable”. On Substance-K receptor [6], this molecule yielded a pKi of 10.
Turning to `O=C1CC[C@](CCN2CC(N3CCC(F)CC3)C2)(c2ccc(Cl)c(Cl)c2)CN1CC1CCC(F)(F)CC1`, the IC50 against Substance-P receptor is above 10000 nM; against Substance-K receptor [1], 0.398 nM. Further, the Fa in [7] was above 80%. The half-life in data set [4] was above 2 h. Moreover, the Caco-2 permeability in the data set listed under Homo sapiens [3] is given as above 35 % hr-1.
Turning to `CN(C)S(=O)(=O)N1CCN(C2CN(CC[C@]3(c4ccc(Cl)c(Cl)c4)CCC(=O)N(CC4CC4)C3)C2)CC1`, on Substance-K receptor [1], the midpoint of inhibition, the IC50, lay at 15.8 nM. The Kb at Substance-K receptor [2] was 10 nM.
`O=C1CC[C@](CCN2CC(N3CCC(F)CC3)C2)(c2ccc(Cl)c(Cl)c2)CN1CCC1CC1`: the IC50 at Substance-K receptor [1] was 2.51 nM. Besides, the Kb at Substance-K receptor [2] is 1.58 nM.
At Substance-K receptor [1], `CS(=O)(=O)N1CCN(C2CN(CC[C@]3(c4ccc(Cl)c(Cl)c4)CCC(=O)N(CC4CCC(F)(F)CC4)C3)C2)CC1` gave an IC50 of 1.26 nM. Also, the Kb on Substance-K receptor [2] is 1 nM. The Caco-2 permeability result in the data set listed under Homo sapiens [8] was “Permeable”.
Take `CS(=O)(=O)N1CCN(C2CN(CC[C@]3(c4ccc(Cl)c(Cl)c4)CCC(=O)N(CC4CC4)C3)C2)CC1`: the Caco-2 permeability in the data set listed under Homo sapiens [9] is 10 % hr-1. This molecule had an IC50 at Substance-K receptor [1] of 7.94 nM. Also, the Kb on Substance-K receptor [2] is 3.16 nM. The molecule also returned a half-life in data set [4] below 0.167 h.
At Substance-K receptor [1], `O=C1CC[C@](CCN2CC(N3CCOCC3)C2)(c2ccc(Cl)c(Cl)c2)CN1CC1CCCCC1` had an IC50 of 0.794 nM. Further, the Kb at Substance-K receptor [2] was 1 nM. This molecule also returned a half-life in data set [4] of 0.233 h. Besides, the Caco-2 permeability entry in the data set listed under Homo sapiens [10] is on record as “Permeable”.
Take `O=C1CC[C@](CCN2CC(N3CCOCC3)C2)(c2ccc(Cl)c(Cl)c2)CN1CC1CCC(F)(F)CC1`: at Substance-K receptor [1], inhibition was half-maximal at 7.94 nM (IC50). Also, the Kb on Substance-K receptor [2] was 1.26 nM. This molecule also came in with a half-life in data set [4] of 1.33 h. The Caco-2 permeability result in the data set filed under Homo sapiens [11] was “Permeable”.
As for `O=C1CC[C@](CCN2CC(N3CCC(F)CC3)C2)(c2ccc(Cl)c(Cl)c2)CN1CC1CC1`, at Substance-K receptor [1], half-maximal inhibition (IC50) required 10 nM. For the same molecule, on Substance-K receptor [2], the Kb was 2.51 nM. Besides, the half-life in data set [4] came to 1.42 h. Besides, the Caco-2 permeability entry in the data set listed under Homo sapiens [5] is on record as “Permeable”.
For `O=C1CC[C@](CCN2CC(N3CCOCC3)C2)(c2ccc(Cl)c(Cl)c2)CN1C1(C2CC2)CCCC1`, on Substance-K receptor [2], the Kb is 0.251 nM. The molecule also came in with a half-life in data set [4] below 0.0167 h. On Substance-K receptor [6], this molecule returned a pKi of 9.5.
Turning to `O=C1CC[C@](CCN2CC(N3CCOCC3)C2)(c2ccc(Cl)c(Cl)c2)CN1CC1CC1`, inhibition at Substance-K receptor [1] was half-maximal at 79.4 nM (IC50). For the same molecule, at Substance-K receptor [2], the Kb is 2 nM. Further, the logD in data set [12] came out at 2.3. In data set [4], the half-life is 2 h. In addition, the Caco-2 permeability result in the data set filed under Homo sapiens [13] is “Permeable”.
At Substance-K receptor [1], `NS(=O)(=O)N1CCN(C2CN(CC[C@]3(c4ccc(Cl)c(Cl)c4)CCC(=O)N(CC4CC4)C3)C2)CC1` had an IC50 of 3.98 nM. For the same molecule, the Kb on Substance-K receptor [14] was 1.58 nM; on Substance-K receptor [2], 1.26 nM. Moreover, the Fa in data set [15] is below 20%. In data set [12], this molecule yielded a logD of 1.7. The same molecule returned a half-life in data set [4] above 2 h. In addition, the Caco-2 permeability result in the data set filed under Homo sapiens [16] is listed as “Permeable”. For the same molecule, in [17], the clearance was below 0.18 L/h/kg.
On to `NC1CCN(C2CN(CC[C@]3(c4ccc(Cl)c(Cl)c4)CCC(=O)N(CC4CC4)C3)C2)CC1`, for which the Caco-2 permeability result in the data set filed under Homo sapiens [18] was “Permeable”. The molecule also had an IC50 against Substance-K receptor [1] of 6.31 nM. The Kb on Substance-K receptor [2] was 2 nM.
Regarding `O=C1CCN(C2CN(CC[C@]3(c4ccc(Cl)c(Cl)c4)CCC(=O)N(CC4CCC(F)(F)CC4)C3)C2)CC1`, the IC50 at Substance-K receptor [1] is 3.16 nM. The Kb on Substance-K receptor [2] was 0.2 nM.
As for `NC1CCN(C2CN(CC[C@]3(c4ccc(Cl)c(Cl)c4)CCC(=O)N(CC4CCC(F)(F)CC4)C3)C2)CC1`, the Caco-2 permeability in the data set filed under Homo sapiens [19] is on record as below 1 % hr-1. Also, the midpoint of inhibition against Substance-K receptor [1], the IC50, lay at 1 nM. Also, the Kb at Substance-K receptor [2] is 0.2 nM. This molecule displayed a logD in data set [12] of 0.1.
The molecule `O=C1CC[C@](CCN2CC(N3CCC(O)CC3)C2)(c2ccc(Cl)c(Cl)c2)CN1CC1CCC(F)(F)CC1` gave an IC50 against Substance-K receptor [1] of 1.26 nM. Also, on Substance-K receptor [2], the Kb was 0.0794 nM. In addition, the logD in data set [12] turned out to be 2.2. The Caco-2 permeability result in the data set filed under Homo sapiens [20] is recorded as “Permeable”.
